{"source": "patent US12527782B2", "about": "“Use of hexokinase 2/mitochondria-detaching compounds for treating hexokinase-2 (HK2)-expressing cancers” (Vidac Pharma Ltd., priority 2016, dated 2026)", "key": {"A431 cells": {"tested_on": "A431 cells", "assay": "Apoptosis: cytochrome C in mitochondrial fraction (WB), A431 cells", "format": "cell-based, human", "conditions": "within 2 hours of treatment, WB semi-quantification", "experimental": "Antibodies used: anti-rabbit HK1 (C-20245) and HK2 (C-28765) from CST (Danvers, MA), anti-rabbit PPIA (ab41684, Abcam), anti-rabbit TIM22 (14927-1-AP, Proteintech Group Inc., Rosemont, IL), anti-rabbit Cytochrome C (PA1118, Boster Biological Technology, Pleasanton, CA). Detection was performed using secondary antibodies: peroxidase-conjugated Affinipure goat anti-rabbit IgG (H+L) or goat anti-mouse IgG (H+L) (111-035-003 and 115-035-003, Jackson ImmunoResearch, West Grove, PA), and development was using the ECL kit WesternBright™ ECL (K-12045-D10, Advansta, Menlo Park, California, USA).\nApoptosis induction was determined by semi-quantification of cytochrome C levels in the mitochondrial fraction analyzed by WB, following 2 hours of treatment with Formula C in A431 cells. Cleaved caspase-3 levels were analyzed following 6 hours of Formula C treatment in A431 cells, using PathScan® Cleaved Caspase-3 Sandwich ELISA kit (CST, Danvers, MA)."}, "[1]": {"assay": "Phase 1a single topical application, pharmacokinetics", "format": "in vivo, human", "conditions": "healthy volunteers", "experimental": "The Phase 1a clinical trial was a randomized, double-blinded, placebo-controlled, dose-escalation study in healthy older-adult volunteers to evaluate the safety, tolerability, and pharmacokinetics of a single topical dermal application of Formula C ointment. The study was conducted under FDA IND in a Phase 1 unit in the United States.\nFifteen healthy volunteers, aged 35-70, were sequentially assigned to 1 of 3 consecutive treatment cohorts (5%, 10% or 20% Formula C ointment, respectively). Five subjects were randomized in a double-blind fashion in each dose cohort: 4 subjects received active Formula C ointment and 1 received matched placebo (0% Formula C; vehicle control). The study ointment (250 mg) was applied once to a 25 centimeter squared area of skin on the forehead of each volunteer."}, "Colon CXF 280": {"tested_on": "Colon CXF 280", "assay": "CFA, CXF 280", "format": "cell-based, human", "conditions": "PDX/CFA", "experimental": "(§1) CFA was performed by Charles River Laboratories (Freiburg, Germany) in 96-well plate format according to a modified two-layer soft agar assay. The origin of the tumor xenografts has been described (Fiebig et al. 1989, incorporated herein by reference). The list of tumors used in this study is detailed in Table 1."}, "[2]": {"tested_on": "Lymphoma (Non-Hodgkin) LYXFNH RAJI", "assay": "CFA, LYXFNH RAJI", "format": "cell-based, human", "conditions": "Cell line/CFA", "experimental": "as §1"}, "Breast MAXF 401": {"tested_on": "Breast MAXF 401", "assay": "CFA, MAXF 401", "format": "cell-based, human", "conditions": "PDX/CFA", "experimental": "as §1"}, "[3]": {"tested_on": "Leukemia (AML) LEXFAM THP-1", "assay": "CFA, LEXFAM THP-1", "format": "cell-based, human", "conditions": "Cell line/CFA", "experimental": "as §1"}, "[4]": {"tested_on": "Lung (NSCLC, epidermoid) LXFE 690", "assay": "CFA, LXFE 690", "format": "cell-based, human", "conditions": "PDX/CFA", "experimental": "as §1"}, "VDAC1/HK1 complex": {"target": "T1, VDAC1/HK1 complex (Homo sapiens, UniProt P19367)", "T1 construct": "host or cells: E. coli (HK1); sheep liver mitochondria (VDAC1)", "T1 sequence (P19367 whole entry, one chain of several)": "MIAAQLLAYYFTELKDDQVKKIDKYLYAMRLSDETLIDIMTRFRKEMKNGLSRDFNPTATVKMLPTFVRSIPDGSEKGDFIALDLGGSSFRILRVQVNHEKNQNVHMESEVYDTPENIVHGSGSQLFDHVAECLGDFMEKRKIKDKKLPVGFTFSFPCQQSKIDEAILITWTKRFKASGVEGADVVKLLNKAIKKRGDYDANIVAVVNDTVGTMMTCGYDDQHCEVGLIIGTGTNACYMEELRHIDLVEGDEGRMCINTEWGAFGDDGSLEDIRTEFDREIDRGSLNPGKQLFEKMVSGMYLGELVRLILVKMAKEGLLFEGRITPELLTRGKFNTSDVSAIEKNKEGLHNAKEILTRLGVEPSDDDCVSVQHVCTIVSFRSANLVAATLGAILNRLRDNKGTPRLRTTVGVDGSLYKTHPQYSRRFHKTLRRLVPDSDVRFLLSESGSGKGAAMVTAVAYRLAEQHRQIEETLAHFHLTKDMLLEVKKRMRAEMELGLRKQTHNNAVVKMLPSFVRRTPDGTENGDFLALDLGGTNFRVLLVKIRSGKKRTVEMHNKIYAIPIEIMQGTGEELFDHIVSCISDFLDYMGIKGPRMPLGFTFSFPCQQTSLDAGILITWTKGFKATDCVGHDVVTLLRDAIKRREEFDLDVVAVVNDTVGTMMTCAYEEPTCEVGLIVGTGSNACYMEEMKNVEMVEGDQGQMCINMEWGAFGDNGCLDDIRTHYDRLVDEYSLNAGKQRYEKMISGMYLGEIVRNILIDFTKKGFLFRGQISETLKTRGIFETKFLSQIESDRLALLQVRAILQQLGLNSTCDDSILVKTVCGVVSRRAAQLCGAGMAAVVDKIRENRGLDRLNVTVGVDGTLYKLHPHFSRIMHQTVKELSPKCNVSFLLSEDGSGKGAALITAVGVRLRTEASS", "assay": "Microscale Thermophoresis (MST) dissociation of VDAC1/HK1 complex", "format": "binding", "conditions": "cell-free MST", "experimental": "A431 (human skin SCC), HT-297.T (human AK), and HaCaT transformed normal keratinocyte cell lines were from ATCC (Manassas, VA) and were maintained in DMEM supplemented with 10% FCS, 4 mM L-Gln, 1 mM sodium pyruvate, 100 U/mL penicillin, 1 μg/mL streptomycin. Human HK1 and HK2 plasmids were purchased from Addgene (Cambridge, MA) and were purified from E. Coli. VDAC1 was purified from sheep liver mitochondria as described (Arbel et al. 2012, incorporated herein by reference). Human skin tissue microarray (SK208 and SK 805) were purchased from US Biomax Inc. (Rockville, MD).\nStudies were conducted on Nanotemper Monolith NT.115 (Munich, Germany). HK1 and HK2 were labeled using Monolith™ NT.115 Protein Labeling Kit BLUE-NHS. As a preliminary study to form the VDAC1-HK complexes, various concentrations of VDAC1 were added to 67 nM HK1 or 71 nM HK2. The preferred VDAC1 concentration was determined to be 1.5 μM. For dissociation studies, HKs were pre-incubated with VDAC1 for 10 minutes and various concentrations of Formula C were added for an additional 10 minutes. MST default parameters were used and analysis was with Nanotemper analysis software. […]\nThe activity of Formula C in a cell-free assay was evaluated using Microscale Thermophoresis (MST) analysis, which is based on altered movement of a protein in a temperature gradient when bound to other molecules. […]"}, "[5]": {"tested_on": "Cutanous T cell lymphoma HH", "assay": "XTT cell viability assay, HH", "format": "cell-based, human", "conditions": "Cell line/XTT", "experimental": "For XTT assays, cells were plated in 96-well plates (5,000 cells per well) for 24 hours. Cells were then incubated with different concentrations of Formula C in triplicates for 72 hr in DMEM supplemented with 0.5% FCS and 5 mM Glucose. Cell viability was evaluated using 2,3-bis-(2-methoxy-4-nitro-5-sulfophenyl)-2H-tetrazolium-5-carboxanilide (XTT)-based colorimetric assay kit (Biological Industries Ltd., Kibbutz Beit-Haemek, Israel). The optical density was measured by an Infinite 200 ELISA reader at 450 nm and reference was measured at 630 nm (Tecan, Männedorf, Switzerland)."}, "Breast MAXF 574": {"tested_on": "Breast MAXF 574", "assay": "CFA, MAXF 574", "format": "cell-based, human", "conditions": "PDX/CFA", "experimental": "as §1"}, "[6]": {"assay": "Phase 2a in subjects with actinic keratosis, safety", "format": "in vivo, human", "experimental": "The Phase 2 clinical trial was a multiple-center randomized, double-blind, placebo-controlled, parallel-cohorts study to evaluate the efficacy, safety, tolerability, and pharmacokinetics of once-daily application of topical Formula C ointment (QD 200 mg) for 28 days in subjects with actinic keratosis. Subjects were followed for one or two months after they completed treatment (through day 56 or day 84). The primary and exploratory efficacy endpoints for the study were reduction in the number of lesions on days 56 and 84, respectively. Subjects were randomly assigned in a double-blind fashion to one of three parallel treatment cohorts (5%, or 10% Formula C, or placebo) at a ratio of 1:1:1. To qualify for the study, subjects aged 18 (inclusive) or older must have had 4-8 discrete Grade 1 or 2 AK lesions within a 25-centimeter squared area of the skin of their scalp or face. The study enrolled 93 subjects in the US and Israel."}}, "note": "Several values for one entry are separate records, joined by “and”; a condition that tells them apart may be missing. Equal entries are not always repeated.", "data": [{"smiles": "CC/C=C\\CC1C(=O)CCC1CC(=O)Oc1cccc2cccnc12", "note": "(stereo not drawn) [Formula C]", "values": [{"measurement": "cytochrome C levels in the mitochondrial fraction", "setting": "A431 cells", "value": "reduction of cytochrome C levels"}, {"measurement": "systemic exposure of VDA-1102 or its major metabolite", "setting": "[1]", "value": "No systemic exposure"}, {"measurement": "IC50", "setting": "Colon CXF 280", "value": 5.44, "unit": "µM"}, {"measurement": "IC50", "setting": "[2]", "value": 1.38, "unit": "µM"}, {"measurement": "IC50", "setting": "Breast MAXF 401", "value": 4.22, "unit": "µM"}, {"measurement": "IC50", "setting": "[3]", "value": 2.18, "unit": "µM"}, {"measurement": "IC50", "setting": "[4]", "value": 6.82, "unit": "µM"}, {"measurement": "effect on the VDAC1/HK1 complex", "setting": "VDAC1/HK1 complex", "value": "no effect"}, {"measurement": "IC50", "setting": "[5]", "value": 0.604, "unit": "µM"}, {"measurement": "IC50", "setting": "Breast MAXF 574", "value": 5.41, "unit": "µM"}, {"measurement": "serious adverse events (deemed unrelated)", "setting": "[6]; 5% group", "value": 1, "unit": "elective surgery"}, {"measurement": "treatment-emergent AEs deemed related to the study drug", "setting": "[6]; 5% group, listed as VDA-1102", "value": "1 mild dyspepsia and 1 mild hypopigmentation"}, {"measurement": "serious adverse events (deemed unrelated)", "setting": "[6]; 10% group", "value": 1, "unit": "acute pneumonia"}, {"measurement": "clinically significant changes at application sites (Local Skin Reactions), vital signs, physical examinations, clinical laboratory results, ECGs", "setting": "[6]; any subject, any time point", "value": "No clinically significant changes"}, {"measurement": "safety signals", "setting": "[6]; subjects with AK, 5% or 10% ointment QD 28 days", "value": "No safety signals"}]}]}
